US11697689B2, “Use of antibody against O-acetylated GD2 ganglioside to improve the therapeutic potential of drugs” (OGD2 PHARMA, priority 2016, dated 2023)
Where two headings read alike, the source gives them in different places.

Assays:
LAN-1 cells [1] = assay: Incorporation of anti-cancer agents in cells, flow cytometry; assay type: cell-based, human; conditions: 5-FU and cisplatin 1.52 μM, doxorubicin […], mAb 8B6 40 μg/ml, 30 minutes at 37° C.
Experimental: FIG. 3: Internalization of 5-FU, Cisplatin and doxorubicin in neuroblastoma cells. LAN-1 cells were treated with 5-FU (1.52 μM)—Panel A, or Cisplatin (1.52 μM)—Panel B, or doxorubicin (4.7 μM)—Panels C and D with combinations of isotype-matched negative control mouse IgG3 (40 μg/ml) or anti-OAcGD2 mAb 8B6, anti-OAcGD2 mAb c8B6.14b, anti-OAcGD2 mAb c8B6.15b (40 μg/ml). Anti-cancer agents and mAb were incubated during 30 minutes at 37° C. Neuroblastoma cells were fixed with PFA 4% before FACS acquisition. Positive control was performed by treatment of fixed LAN-1 cells with saponin 0.05% in combination with anti-cancer agents during 30 minutes. Incorporation of anti-cancer agents in tumor cells was assessed by flow cytometry (excitation with a 535 nm laser) and results are expressed in percentage of cells having incorporated anti-cancer agent in total cell population.
Combinations of anti-OAcGD2 mAb 8B6 with other anti-cancer agents were also assayed on LAN-1 neuroblastoma cell line. In this experiment, incorporation of 5-FU, Cisplatin and doxorubicin within the cells in the presence of mAb 8B6 or CTRL-(IgG) was detected using flow cytometry (excitation with a 535 nm laser). Anti-cancer agents and mAb were incubated during 30 minutes at 37° C.

NXS2 cells [2] = assay: MTT cell proliferation assay, drug with or without mAb 8B6; assay type: cell-based, murine; conditions: for EC50: Mus musculus, 48 hours
Experimental: (§1) The antiproliferative activity of the anti-cancer agents was evaluated using the MIT Cell Proliferation Assay Kit (Roche Diagnostic, Indianapolis, USA). The MTT assay is based on the reduction of yellow tetrazolium MIT (3-(4,5-dimethylthiazolyl-2)-2,5-diphenyltetrazolium bromide) by metabolically active cells forming purple formazan crystals. The purple formazan is solubilized with detergent and quantified spectrophotometrically at 570 nm.
(§2) Cells in the log phase of growth were seeded into 96-well (5×10^3 for LAN-1 and NXS2 cells; 1×10^4 for IMR5 and LAN-5 cells) treated plates in 100 μl of complete media. The cells were allowed to attach during an overnight incubation prior to treating with test agents. […] Equivalent culture media volume was added to control wells. Three conditions were used: anti-cancer agent alone, mAb 8B6 alone, mAb 8B6+anti-cancer agent. Cells were exposed to test agents for 48 hours. Following the exposure to test agents, 15 μl of MIT reagent was added to each well. The plates were returned to the incubator for four hours. Following the incubation period, kit supplied detergent reagent (100 μl) was added to all wells. The plates were wrapped in plastic wrap to prevent evaporation and allowed to sit at room temperature in the dark overnight. The absorbance at 570 nm was measured the following day using a iMark™ Microplate Absorbance Reader plate reader (Bio-Rad). Assays were performed in quadruplicate and experiments were repeated three times. […] The median-effect equation used by CompuSyn® software derived from the mass-action law principle at equilibrium steady state. […] Percent of Control values were calculated by dividing the absorbance values for each test well by the No Drug Control average and multiplying by 100.
(§3) Combination data was analyzed using CompuSyn® software to calculate Combination Index values to assess synergy. […] The dosage, fraction affected and molar ratio of compounds tested in combination were entered into the CompuSyn® software for evaluation of the presence/absence of synergy. CompuSyn® assigns a Combination Index value which rates the level of compounds' inhibiting 50% of the cell proliferation. […] See Chou, PHARMACOL.
(§4) NXS2 cells were grown in DMEM 4.5 g/L de glucose with 10% heat-inactivated fetal calf serum, 2 mM L-Glutamine, 100 units/ml penicillin, and 100 μg/ml streptomycin, at 37° C. in 5% CO2.

IMR5 cells [3] = assay: as above; assay type: cell-based, human; conditions: for EC50: Homo sapiens, 48 hours
Experimental: as §1, §2, §3, §4

LAN-1 cells [4] = assay: as above; assay type: cell-based, human; conditions: for EC50: Homo sapiens, 48 hours
Experimental: as §1, §2, §3, §4

LAN-5 cells [5] = assay: as above; assay type: cell-based, human; conditions: for EC50: Homo sapiens, 48 hours
Experimental: Equivalent culture media volume was added to control wells. […] Cells were exposed to test agents for 48 hours.

[6] = system: neuroblastoma cell lines NXS2, IMR5, LAN-1 and LAN-5; conditions: NXS2, IMR5, LAN-1, LAN-5
Experimental: as §1
Cells in the log phase of growth were seeded into 96-well (5×10^3 for LAN-1 and NXS2 cells; 1×10^4 for IMR5 and LAN-5 cells) treated plates in 100 μl of complete media. The cells were allowed to attach during an overnight incubation prior to treating with test agents. […] Equivalent culture media volume was added to control wells. Three conditions were used: anti-cancer agent alone, mAb 8B6 alone, mAb 8B6+anti-cancer agent. Cells were exposed to test agents for 48 hours. Following the exposure to test agents, 15 μl of MIT reagent was added to each well. […] The absorbance at 570 nm was measured the following day using a iMark™ Microplate Absorbance Reader plate reader (Bio-Rad). […] Percent of Control values were calculated by dividing the absorbance values for each test well by the No Drug Control average and multiplying by 100.
Combination data was analyzed using CompuSyn® software to calculate Combination Index values to assess synergy. […]

[7] = system: NXS2 neuroblastoma experimental liver metastasis; assay: Murine NXS2 neuroblastoma experimental liver metastasis model; assay type: in vivo, A/J mice; conditions: day 28 after NXS2 inoculation; mAb 8B6 150 μg cumulative i.v.; isotretinoin 10 mg/kg per os; topotecan 0.36 mg/kg i.p.; doxorubicin 1 mg/kg i.p.; vehicle 2.5±0.18 g; mean±SEM
Experimental: Mice (n=10/group) were inoculated with 2.5×10^5 NXS2 mouse neuroblastoma cells by i.v. injections. 8B6 mAb treatment was started on day 3 after tumor cell inoculation twice a week for 3 consecutive weeks (cumulative dose=150 μg, A-C). All chemotherapeutic treatments were started at day 10 post-tumor inoculation. Panel A: isotretinoin was given at 10 mg/kg, per os, five times weekly for 2 weeks. […] Panel C: doxorubicin was given by i.p. injections at 1 mg/kg five times weekly for 2 weeks. Mice were euthanized 28 days post-tumor inoculation. Anti-tumor efficacy was evaluated by determining the liver weight on the fresh specimen compared to the mice treated with vehicle only. The liver weight is indicative of hepatic metastasis number. The y-axis starts at 0.8 g corresponding to the average normal liver weight. Data are presented as the mean±SEM.
We inoculated 2.5×10^5 tumor cells by tail vein in PBS. […] Anti-OAcGD2 mAb 8B6 treatment was started at Day 3 after tumor cells injection. Mice received by i.v. injection twice a week 25 μg mAb 8B6 for 3 consecutive weeks; (day 3, 7, 10, 14, 17 and 21; total dose=150 μg). Isotretinoin was given orally diluted in Ora-Plus© at 10 mg/kg daily for 2 consecutive weeks (on days 10-14 and 17-21). […] Doxorubicin was given by i.p. injection at 1 mg/kg daily for two weeks (on days 10-14 and 17-21). Mice were sacrificed after 28 days post inoculation, and anti-tumor efficacy was evaluated by liver weight of the fresh specimen as well as hepatic metastasis number. • 6.2—Results
Anti-cancer agents were given at low doses as previously reported in the literature in order to minimize related side effects. Three days after i.v. NSX2 tumor cell inoculation, ten mice were assigned to treatment with single agent, or combination of mAb 8B6 and anti-cancer agents as described previously. On day 28 after tumor cell inoculation, we determined the number of liver metastases and the liver weight after mice euthanasia.

[8] = Systemic tolerability, body weight over the treatment period; assay type: in vivo, A/J mice; conditions: same groups and doses as the NXS2 liver metastasis study
From the text: Mean weight of group of mice (n=10) presented in FIG. 6 at day 0 was defined as 100% weight. Weight in each group remained stable for the period of treatment. Δ, mice treated with mAb 8B6; ◯, mice treated with anti-cancer agent; □, mice treated with chemotherapeutic drug plus mAb 8B6.
Weight loss is used as a sensitive marker for health monitoring. We therefore performed a parallel analysis of the body weight over the treatment period. […] The body-weight difference between the two groups treated with doxorubicin compared to the non-doxorubicin group, however, fails to be significant during the treatment period (p>0.05).

NXS2 cells [9] = assay: OAcGD2 expression (mAb 8B6 binding) after drug exposure, flow cytometry; conditions: isotretinoin 75, topotecan 0.5, doxorubicin 3 μM (Table 1), mean ± SD
IMR5 cells [10] = assay: as above; conditions: isotretinoin 40, topotecan 1, doxorubicin 7 μM (Table 1), mean ± SD, n = 3, untreated 14.6 ± 0.4
LAN-1 cells [11] = assay: as above; conditions: isotretinoin 40, topotecan 5, doxorubicin 3 μM (Table 1), mean ± SD, n = 3, untreated 12.1 ± 0.1
LAN-5 cells [12] = assay: as above; conditions: isotretinoin 8, topotecan 1, doxorubicin 5 μM (Table 1), mean ± SD, n = 3, untreated 13.2 ± 0.7
[13] = system: AMBMa glioblastoma primary cells; assay: MTT assay, temozolomide with or without mAb 8B6; assay type: cell-based; conditions: Homo sapiens, temozolomide alone, 72 hours
Experimental: (§5) Tumor specimens were collected from patients with a histologic diagnosis of GBM. Tumors were harvested at the time of surgical resection and immediately put into culture after dissociation of the tumors using the gentleMACs™ Dissociator (Miltenyi) according to the manufacturer's instructions.
(§6) Equivalent culture media volume was added to control wells. […] Cells were exposed to test agents for 72 hours. Following the exposure to test agents, 15 μl of MTT reagent was added to each well.
(§7) Cell viability was measured using the MTT assay and half maximal effective concentration (EC50) was calculated as previously disclosed.

[14] = system: DUASOII glioblastoma primary cells; assay: MTT assay, temozolomide with or without mAb 8B6; assay type: cell-based; conditions: Homo sapiens, temozolomide alone, 72 hours
Experimental: as §5, §6, §7

[15] = system: DUGAn glioblastoma primary cells; assay: MTT assay, temozolomide with or without mAb 8B6; assay type: cell-based; conditions: Homo sapiens, temozolomide alone, 72 hours
Experimental: as §5, §6, §7

[16] = system: GLIO 5 glioblastoma primary cells; assay: MTT assay, temozolomide with or without mAb 8B6; assay type: cell-based; conditions: Homo sapiens, temozolomide alone, 72 hours
Experimental: as §5, §6, §7

[17] = system: GUITh glioblastoma primary cells; assay: MTT assay, temozolomide with or without mAb 8B6; assay type: cell-based; conditions: Homo sapiens, temozolomide alone, 72 hours
Experimental: as §5, §6, §7

[18] = system: HARCI glioblastoma primary cells; assay: MTT assay, temozolomide with or without mAb 8B6; assay type: cell-based; conditions: Homo sapiens; HARCl; temozolomide alone; 72 hours
Experimental: as §5, §6, §7

[19] = with mAb 8B6 40 μg/ml, read-out: EC50 with mAb 8B6
[20] = IMR-5, drug alone, read-out: EC50
[21] = IMR-5, with mAb 8B6 40 μg/ml, read-out: EC50 with mAb 8B6
[22] = LAN1, drug alone, read-out: EC50
[23] = LAN1, with mAb 8B6 40 μg/ml, read-out: EC50 with mAb 8B6
[24] = LA-N-5, drug alone, read-out: EC50
[25] = LA-N-5, with mAb 8B6 40 μg/ml, read-out: EC50 with mAb 8B6

Structure (SMILES) | cells positive for the anti-cancer agent when incubated with mAb 8B6 versus agent alone and CTRL-(IgG) (LAN-1 cells [1]) | EC50 (NXS2 cells [2]; drug alone, read-out: EC50) | EC50 (NXS2 cells [2]; [19]) | EC50 (IMR5 cells [3]; [20]) | EC50 (IMR5 cells [3]; [21]) | EC50 (LAN-1 cells [4]; [22]) | EC50 (LAN-1 cells [4]; [23]) | EC50 (LAN-5 cells [5]; [24]) | EC50 (LAN-5 cells [5]; [25]) | mean liver weight [7] | body weight over the treatment period [8] | Expression level of OAcGD2 (MFI ratio mAb 8B6 / mAb 7H2) after 48 hours exposure (NXS2 cells [9]; n = 3, untreated 7.3 ± 0.9) | Expression level of OAcGD2 (MFI ratio mAb 8B6 / mAb 7H2) after 48 hours exposure (IMR5 cells [10]) | Expression level of OAcGD2 (MFI ratio mAb 8B6 / mAb 7H2) after 48 hours exposure (LAN-1 cells [11]) | Expression level of OAcGD2 (MFI ratio mAb 8B6 / mAb 7H2) after 48 hours exposure (LAN-5 cells [12]) | also measured
O=c1[nH]cc(F)c(=O)[nH]1 [5-FU, 5-Fluorouracil] | more cells were positive |  |  |  |  |  |  |  |  |  |  |  |  |  |  | 
COc1cccc2c1C(=O)c1c(O)c3c(c(O)c1C2=O)C[C@@](O)(C(=O)CO)C[C@@H]3O[C@H]1C[C@H](N)[C@H](O)[C@H](C)O1 [Doxorubicin, doxorubicin] | more cells were positive | 2.75 µM | 0.016 µM | 6.3 µM | 0.01 µM | 4.67 µM | 0.014 µM | 2.09 µM | 0.13 µM | 1.75 ± 0.09 g | a loss of body weight after day 17 | 6.48 ± 2.28 | 15.24 ± 0.21 | 13.76 ± 1.8 | 14.36 ± 1.4 | Combination index 50 Values (NXS2 cells [2]; CompuSyn, below 1 = synergy): 0.30; Combination index 50 Values (IMR5 cells [3]; CompuSyn, below 1 = synergy): 0.10; Combination index 50 Values (LAN-1 cells [4]; CompuSyn, below 1 = synergy): 0.05; Combination index 50 Values (LAN-5 cells [5]; CompuSyn, below 1 = synergy): 0.16; median combination index values across the tested neuroblastoma cell lines [6]: ≤ 0.30; Expression level of OAcGD2 (MFI ratio mAb 8B6 / mAb 7H2) after 48 hours exposure (NXS2 cells [9]; n = 3, untreated 7.3 ± 0.9, listed as doxorubicin): remained unchanged
CC1=C(/C=C/C(C)=C/C=C/C(C)=C\C(=O)O)C(C)(C)CCC1 [Isotretinoin, isotretinoin] |  | 75.7 µM | 59.3 µM | 32.9 µM | 24 µM | 7.4 µM | 4.3 µM | 37.2 µM | 31.3 µM | 2.0 ± 0.24 g | no loss of body weight | 7.5 ± 1.1 | 19.2 ± 0.8 | 12.0 ± 0.1 | 16.8 ± 0.7 | Expression level of OAcGD2 (MFI ratio mAb 8B6 / mAb 7H2) after 48 hours exposure (NXS2 cells [9]; n = 3, untreated 7.3 ± 0.9, listed as isotretinoin): remained unchanged
CC[C@@]1(O)C(=O)OCc2c1cc1n(c2=O)Cc2cc3c(CN(C)C)c(O)ccc3nc2-1 [Topotecan, topotecan] |  | 0.45 µM | 0.15 µM | 0.011 µM | 0.007 µM | 0.771 µM | 0.015 µM | 12.4 µM | 0.004 µM | 1.22 ± 0.09 g | no loss of body weight |  |  |  |  | 
N.N.[Cl][Pt][Cl] [cisplatin] | more cells were positive |  |  |  |  |  |  |  |  |  |  |  |  |  |  | 
Cn1nnc2c(C(N)=O)ncn2c1=O [temozolomide] |  |  |  |  |  |  |  |  |  |  |  |  |  |  |  | EC50 [13]: 784 µM; EC50 [14]: 584 µM; EC50 [15]: 1120 µM; EC50 [16]: 1590 µM; EC50 [17]: 3160 µM; EC50 [18]: 13100 µM
